In patent US20240209022A1, “NOVEL PEPTIDE HAVING ANTI-INFLAMMATORY AND TISSUE REGENERATIVE ACTIONS” (KOREA RESEARCH INSTITUTE OF BIOSCIENCE AND BIOTECHNOLOGY, priority 2020, published 2024):

What was measured:
[1] = system: animal model of metabolic disease accompanied by obesity/diabetes and chronic inflammation; assay: High-fat diet obesity/diabetic metabolic disease model; format: in vivo, C57BL/6J mice; conditions: for fasting blood glucose: after fasting for 16 hours at the end of the test; for blood glucose in insulin resistance experiment (ITT): after insulin administration, time as stated in the value; for blood glucose in insulin resistance experiment (ITT) / body weight / AUC value of the insulin resistance experiment / LDL-C level in blood / TC (total cholesterol) level in blood / abdominal fat: vs PBS buffer group; for body weight: oral, 3 weeks on high-fat diet; for maintenance of the decreased blood glucose in insulin resistance experiment: until 120 minutes after insulin
Description: An animal model of metabolic disease accompanied by obesity/diabetes and chronic inflammation was induced by feeding a high-fat diet.
The experiment in the groups administered with Amuc_1409 or PEP001 to PEP005 was performed using 8-week-old SPF male C57BL/6J mice, and the metabolic disease accompanied by obesity/diabetes and chronic inflammation was induced by ad libitum feeding of a high-fat diet for 45 weeks or 8 weeks. Specifically, mice fed a high-fat diet for 45 weeks were fed a high-fat diet for an additional 3 weeks, and Amuc_1409 was dissolved in PBS buffer at a concentration of 2.4 μM and then orally administered to the mice by 150 μL per animal at the same time once a day until the end of the experiment, or mice fed a high-fat diet for 8 weeks were fed a high-fat diet for an additional 3 weeks, and PEP001, PEP002, PEP003, PEP004, or PEP005 was dissolved in PBS buffer at a concentration of 2.4 μM and then orally administered to the mice by 150 μL per animal at the same time once a day until the end of the experiment. To the control group, PBS buffer was orally administered in the same manner.
For the experiment in the groups administered with PEP006 to PEP013, 8-week-old male C57BL/6J mice were used, and the metabolic disease accompanied by obesity/diabetes and chronic inflammation was induced by ad libitum feeding of a high-fat diet for 32, 50, or 53 weeks. Mice fed a high-fat diet for 32 weeks were fed a high-fat diet for an additional 3 weeks, and a novel tetrapeptide PEP006 was dissolved in PBS buffer at a concentration of 0.15 μg/150 μL (PEP006) and then orally administered to the mice by 150 μL per animal at the same time until the end of the test, mice fed a high-fat diet for 50 weeks were fed a high-fat diet for an additional 3 weeks, and a novel tetrapeptide PEP007, PEP008, PEP009, or PEP010 was dissolved in PBS buffer at a concentration of 0.2 μg/150 μL (PEP007 to PEP013) and then orally administered to the mice by 150 μL per animal at the same time until the end of the test, and mice fed a high-fat diet for 53 weeks were fed a high-fat diet for an additional 3 weeks, and a novel […] PEP011, PEP012, or PEP013 was dissolved in PBS buffer at a concentration of 0.2 μg/150 μL (PEP007 to PEP013) and then orally administered to the mice by 150 μL per animal at the same time until the end of the test. To the control group, PBS buffer was orally administered in the same manner.
For all animals, general symptoms were observed immediately before administration at the start of administration, and the body weight was measured until the end of the test after group separation.
Insulin (Humalog, 1 unit/kg) was intraperitoneally injected into mice fasted for 4 hours at 2 weeks after the start of test substance administration (2 weeks in groups administered with Amuc_1409 and PEP001 to PEP005 and 3 weeks in groups administered with PEP006 to PEP013), and then blood glucose at 30 minutes, 60 minutes, 90 minutes, and 120 minutes was measured from a small amount of blood obtained through a wound at the tip of the tail using ACCU-CHECK (Roche), thereby performing an insulin tolerance test (ITT).
At the end of the test, fasting blood glucose was measured from a small amount of blood obtained through a wound at the tip of the tail of the mouse fasted for 16 hours using ACCU-CHECK, and blood was collected from the orbital venous plexus using a heparin-treated capillary tube. The collected blood was immediately centrifuged at 10,000 rpm (4° C.) for 10 minutes to separate plasma, and then subjected to analysis of total cholesterol (TC) and low-density lipoprotein cholesterol (LDL-C), which are blood abnormal lipid indicators, using an automated blood biochemical analyzer.

[2] = system: depression and anxiety model; assay: LPS-induced depression and anxiety model (TST, FST, EPM); format: in vivo, C57BL/6J mice; conditions: vs PBS buffer group; for Ifnγ mRNA expression in brain tissue (hippocampus) / Il-10 mRNA expression in brain tissue (hippocampus): RT-qPCR; for immobility time in forced swim test / immobility time in tail suspension test: oral, LPS-induced
Description: By Daehan Biolink, 7-week-old male C57BL/6J mice weighing 20-22 g were supplied, and the animals were sufficiently supplied with solid feed and water until the day of the experiment, acclimatized for 1 week while maintaining an environment with a temperature of 22° C. 2° C., a humidity of 55%±15%, and a 12-hour light/dark cycle, and then used in the experiment. From 3 days before inducing depression and anxiety, the peptide was dissolved in PBS buffer and orally administered to the mice by 150 μL per animal at the same time once a day. Amuc_1409 or PEP001, PEP002, PEP003, PEP004, or PEP005 was dissolved in PBS buffer at a concentration of 6.7 μM and then used, and novel tetrapeptides PEP006, PEP007, PEP008, PEP009, and PEP010 and novel tripeptides PEP011, PEP012, and PEP013 were each dissolved in PBS buffer at a concentration of 0.2 μg/150 μL and then used. On the 3rd day of peptide administration, lipopolysaccharide (LPS) dissolved in PBS buffer was intraperitoneally injected at a concentration of 0.8 mg/kg to induce depression and anxiety. Tail suspension test (TST) and forced swim test (FST) were conducted to analyze the effect on depression. As the TST, a tail suspension device was installed in an open white acrylic box of 20 cm×25 cm×30 cm size, and the mouse was suspended upside down at a height where the mouse's tail would not touch the floor, and then the time for which the mouse maintained immobility while observing in the same environment was measured for 6 minutes. […] Water at around 25° C. was filled in a transparent acrylic cylinder (45 cm depth×18 cm diameter) up to 30 cm from the bottom, the mouse was exposed to water, and the time for which the mouse maintained immobility while swimming was measured for 6 minutes. […] An elevated plus-maze (EPM) test was performed to analyze the effect on anxiety level. The EPM device consists of two open arms (50 cm×10 cm) and two […] (50 cm×10 cm) at a height of 50 cm from the floor, and the arms are connected by a central area of 10 cm×10 cm. At the start of the experiment, the mouse was placed in the center of the maze and the time for which the mouse stayed in the open arm was measured for a total of 5 minutes using a video camera, and the percentage of time spent in the open arm was calculated and recorded [(time spent in open arm/time spent in open and closed arms)×100]. In addition, in order to examine the anti-inflammatory activity according to the administration of Amuc_1409 and PEP001, PEP002, PEP003, PEP004, and PEP005 in an animal model of depression and anxiety, the expression of Ifnγ and Il-10 mRNA, which are major inflammatory genes related to depression, in brain tissue (hippocampus) was examined.

| Substance | fasting blood glucose [1] | blood glucose in insulin resistance experiment (ITT) [1] | body weight [1] | AUC value of the insulin resistance experiment [1] | LDL-C level in blood [1] | TC (total cholesterol) level in blood [1] | abdominal fat [1] | Ifnγ mRNA expression in brain tissue (hippocampus) [2] | Il-10 mRNA expression in brain tissue (hippocampus) [2] | immobility time in forced swim test [2] | immobility time in tail suspension test [2] | time spent in the open arm, elevated plus-maze test [2] | maintenance of the decreased blood glucose in insulin resistance experiment [1] |
| --- | --- | --- | --- | --- | --- | --- | --- | --- | --- | --- | --- | --- | --- |
| AVSSI (PEP002) | decreased | decreased at 30 minutes after insulin administration | decreased from the initial body weight | decreased | significantly decreased | decreased | decreased | significantly decreased | significantly increased | significantly decreased | significantly decreased | increased |  |
| GAY [PEP005] | decreased | decreased at 30 minutes after insulin administration | significantly decreased | decreased | significantly decreased | tended to decrease | decreased | significantly decreased | significantly increased | significantly decreased | significantly decreased | increased |  |
| AGS [PEP012] |  | decreased close to a significant level from 30 minutes to 120 minutes after insulin administration |  | decreased close to a significant level |  |  |  |  |  | tended to decrease | decreased |  |  |
| VGAY (PEP010) |  | decreased to a significant level from 30 minutes to 120 minutes after insulin administration |  | decreased close to a significant level |  |  |  |  |  | tended to decrease | decreased |  |  |
| KGAY (PEP003) | decreased | decreased at 30 minutes after insulin administration | significantly decreased | decreased | significantly decreased | significantly decreased | decreased | significantly decreased | significantly increased | significantly decreased | significantly decreased | increased | significantly maintained until 120 minutes |
| IGAY (PEP008) |  | decreased to a significant level from 30 minutes to 120 minutes after insulin administration |  | significantly decreased |  |  |  |  |  | tended to decrease | decreased |  |  |
| SGAY (PEP009) |  | decreased to a significant level from 30 minutes to 120 minutes after insulin administration |  | decreased close to a significant level |  |  |  |  |  | tended to decrease | decreased |  |  |
| AQS [PEP011] |  | decreased close to a significant level from 30 minutes to 120 minutes after insulin administration |  | decreased close to a significant level |  |  |  |  |  | tended to decrease | decreased |  |  |
| AIS [PEP013] |  | decreased close to a significant level from 30 minutes to 120 minutes after insulin administration |  | decreased close to a significant level |  |  |  |  |  | tended to decrease | decreased |  |  |
| AGAY (PEP006) |  | decreased to a significant level from 30 minutes to 120 minutes after insulin administration |  | decreased close to a significant level |  |  |  |  |  | tended to decrease | decreased |  |  |
| AVSSIKGAY (PEP001) |  | decreased at 30 minutes after insulin administration | decreased from the initial body weight | decreased | significantly decreased | decreased | decreased | significantly decreased | significantly increased | significantly decreased | significantly decreased | increased |  |
| AVS (AVSSIKGAY) [PEP004] | decreased | decreased at 30 minutes after insulin administration | significantly decreased | decreased | significantly decreased | tended to decrease | decreased | significantly decreased | significantly increased | significantly decreased | significantly decreased | increased | significantly maintained until 120 minutes |
